From patent publication US20240158446A1, “CYCLIC COMPOUND HAVING SELECTIVE INHIBITORY ACTION ON KRAS OVER HRAS AND NRAS” (CHUGAI SEIYAKU KABUSHIKI KAISHA, priority 2021, published 2024)
Read-outs that look alike come from different tables or passages of the source.

Experiments:
[1] = molecular target: GDP-bound HRAS wild-type protein (Homo sapiens, UniProt P01112); experiment: Binding to HRAS by surface plasmon resonance (SPR), Single Cycle Kinetics; conditions: for HRAS/KRAS (ratio of KD value for HRAS to KD value for KRAS): SPR, GDP-bound HRAS wild-type protein vs GDP-bound KRAS wild-type protein; for HRAS/KRAS (ratio of KD value with respect to GDP-bound HRAS wild-type protein to KD value with respect to KRAS): SPR KD ratio HRAS/KRAS, class symbols
[2] = molecular target: GDP-bound KRAS wild-type protein (Homo sapiens, UniProt P01116); experiment: Binding to KRAS by surface plasmon resonance (SPR), Single Cycle Kinetics; conditions: GDP-bound KRAS wild-type protein, read-out: KRAS KD
[3] = test system: human lung cancer strain NCI-H441;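 further: cell proliferation inhibition after four days measured by CellTiter-Glo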
[4] = molecular target: GDP-bound NRAS wild-type protein (Homo sapiens, UniProt P01111); experiment: Binding to NRAS by surface plasmon resonance (SPR), Single Cycle Kinetics; conditions: for NRAS/KRAS (ratio of KD value for NRAS to KD value for KRAS): SPR, GDP-bound NRAS wild-type protein vs GDP-bound KRAS wild-type protein; for NRAS/KRAS (ratio of KD value with respect to GDP-bound NRAS wild-type protein to KD value with respect to KRAS): SPR KD ratio NRAS/KRAS, class symbols
[5] = SPR, Single Cycle Kinetics, 1:1 binding model
[6] = SPR Single Cycle Kinetics, 1:1 binding model

GDP-bound KRAS wild-type protein, sequence (P01116 whole entry): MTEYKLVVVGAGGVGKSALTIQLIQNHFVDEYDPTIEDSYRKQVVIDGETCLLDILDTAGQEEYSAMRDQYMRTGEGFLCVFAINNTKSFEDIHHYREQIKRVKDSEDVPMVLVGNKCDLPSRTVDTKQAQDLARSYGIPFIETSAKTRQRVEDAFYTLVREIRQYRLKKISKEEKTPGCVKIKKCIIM
GDP-bound NRAS wild-type protein, sequence (P01111 whole entry): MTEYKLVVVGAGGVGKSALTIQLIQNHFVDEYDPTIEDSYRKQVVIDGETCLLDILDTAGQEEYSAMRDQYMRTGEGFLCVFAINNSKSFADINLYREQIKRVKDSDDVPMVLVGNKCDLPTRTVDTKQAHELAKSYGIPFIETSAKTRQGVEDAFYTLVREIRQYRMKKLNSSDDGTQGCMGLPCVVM
GDP-bound HRAS wild-type protein, sequence (P01112 whole entry): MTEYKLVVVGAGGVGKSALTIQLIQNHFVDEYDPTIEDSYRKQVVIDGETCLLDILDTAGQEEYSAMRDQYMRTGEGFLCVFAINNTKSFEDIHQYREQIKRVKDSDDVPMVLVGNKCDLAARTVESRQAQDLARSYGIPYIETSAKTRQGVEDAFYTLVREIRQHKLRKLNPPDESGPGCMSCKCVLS

SMILES | HRAS/KRAS (ratio of KD value for HRAS to KD value for KRAS) ([1]; KD ratio class) | Kd [2, 5] [nM] | IC50 [3] [nM] | NRAS/KRAS (ratio of KD value for NRAS to KD value for KRAS) ([4]; KD ratio class) | HRAS/KRAS (ratio of KD value with respect to GDP-bound HRAS wild-type protein to KD value with respect to KRAS) [1] | Kd [2, 6] [nM] | NRAS/KRAS (ratio of KD value with respect to GDP-bound NRAS wild-type protein to KD value with respect to KRAS) [4] | HRAS/KRAS (ratio of KD value for HRAS to KD value for KRAS) [1] | Kd ([2]; SPR, Single Cycle Kinetics) [nM] | NRAS/KRAS (ratio of KD value for NRAS to KD value for KRAS) [4]
CCO[C@@H]1C[C@H]2C(=O)NC3(CCC3)C(=O)N(C)[C@@H](C3CCCC3)C(=O)N(C)[C@H](C(=O)N(C)C)CC(=O)N(C)[C@@H](CC3CCCC3)C(=O)N[C@@H]([C@@H](C)CC)C(=O)N(C)CC(=O)N(C)[C@H]3C/C=C\CCN(C3=O)[C@@H](CC3CCC(F)(F)CC3)C(=O)N(C)CC(=O)N[C@@H](CCc3cc(F)c(C(F)(F)F)c(F)c3)C(=O)N2C1 [PP1458] | A (a compound having 10 or more and less than 20 is denoted as A) | 0.15 | 18.2 | A (a compound having 10 or more and less than 20 is denoted as A) | – | – | – | – | – | –
CCO[C@@H]1C[C@H]2C(=O)NC3(CCC3)C(=O)N(C)[C@@H](C3CCCC3)C(=O)N(C)[C@H](C(=O)N3CCOCC3)CC(=O)N(C)[C@@H](CC(C)C)C(=O)N[C@@H]([C@@H](C)CC)C(=O)N(C)CC(=O)N(C)[C@H]3C/C=C\CCN(C3=O)[C@@H](Cc3ccc(C)cc3)C(=O)N(C)CC(=O)N[C@@H](CCc3cc(F)c(C(F)(F)F)c(F)c3)C(=O)N2C1 [PP1415] | A (a compound having 10 or more and less than 20 is denoted as A) | 0.25 | 9.5 | A (a compound having 10 or more and less than 20 is denoted as A) | – | – | – | – | – | –
CCO[C@@H]1C[C@H]2C(=O)NC3(CCC3)C(=O)N(C)[C@@H](C3CCCC3)C(=O)N(C)[C@H](C(=O)N(C)C)CC(=O)N(C)[C@@H](CC3CCCC3)C(=O)N[C@@H]([C@@H](C)CC)C(=O)N(C)CC(=O)N(C)[C@H]3C/C=C\CCN(C3=O)[C@@H](Cc3ccc(C)cc3)C(=O)N(C)CC(=O)N[C@@H](CCc3cc(F)c(Cl)c(F)c3)C(=O)N2C1 [PP1486] | A (a compound having 10 or more and less than 20 is denoted as A) | 0.46 | 15 | A (a compound having 10 or more and less than 20 is denoted as A) | – | – | – | – | – | –
CCOC[C@H]1C(=O)N[C@@H]([C@@H](C)CC)C(=O)N(C)CC(=O)N(C)[C@H]2C/C=C\CCN(C2=O)[C@@H](Cc2ccc(C(F)(F)F)cc2)C(=O)N(C)CC(=O)N[C@@H](CCc2cc(F)c(C(F)(F)F)c(F)c2)C(=O)N2C[C@H](OCC)C[C@H]2C(=O)NC2(CC(C)(C)C2)C(=O)N(C)[C@@H](CC2CCC2)C(=O)N(C)[C@H](C(=O)N(C)C)CC(=O)N1C [PP2763] | – | – | 71.9 | – | A (a compound having 10 or more and less than 20 is denoted as A) | 0.86 | A (a compound having 10 or more and less than 20 is denoted as A) | – | – | –
CCOC[C@H]1C(=O)N[C@@H]([C@@H](C)CC)C(=O)N(C)CC(=O)N(C)[C@H]2C/C=C\CCN(C2=O)[C@@H](Cc2ccc(C)cc2)C(=O)N(C)CC(=O)N[C@@H](CCc2ccc(C(F)(F)F)c(Cl)c2)C(=O)N2C[C@H](OCC)C[C@H]2C(=O)NC2(CC(C)(C)C2)C(=O)N(C)[C@@H](C2CCCC2)C(=O)N(C)[C@H](C(=O)N(C)CC)CC(=O)N1C [PP2401] | – | – | 5.3 | – | – | – | – | A (a compound having 10 or more and less than 20 is denoted as A) | 0.12 | A (a compound having 10 or more and less than 20 is denoted as A)
CCC[C@H]1C(=O)N[C@@H]([C@@H](C)CC)C(=O)N(C)CC(=O)N(C)[C@H]2C/C=C\CCN(C2=O)[C@@H](Cc2ccc(C(F)(F)F)cc2)C(=O)N(C)CC(=O)N[C@@H](CCc2ccc(C(F)(F)F)c(OC)c2)C(=O)N2C[C@H](OCC)C[C@H]2C(=O)NC2(CC(C)(C)C2)C(=O)N(C)[C@@H](CC2CCC2)C(=O)N(C)[C@H](C(=O)N(C)C)CC(=O)N1C [PP2764] | – | – | 55.8 | – | A (a compound having 10 or more and less than 20 is denoted as A) | 0.85 | A (a compound having 10 or more and less than 20 is denoted as A) | – | – | –
CCCOC[C@H]1C(=O)N[C@@H]([C@@H](C)CC)C(=O)N(C)CC(=O)N(C)[C@H]2C/C=C\CCN(C2=O)[C@@H](Cc2ccc(C(F)(F)F)cc2)C(=O)N(C)CC(=O)N[C@@H](CCc2cc(F)c(C(F)(F)F)c(F)c2)C(=O)N2C[C@H](OCC)C[C@H]2C(=O)NC2(CC(C)(C)C2)C(=O)N(C)[C@@H](C2CCCC2)C(=O)N(C)[C@H](C(=O)N(C)C)CC(=O)N1C [PP1398, (2S,8S,12R,14S,20S,23S,27S,30S,36S,38Z)-20-cyclopentyl-8-[2-[3,5-difluoro-4-(trifluoromethyl)phenyl]ethyl]-12-ethoxy-N,N,3′,3′,4,19,22,26,32,35-decamethyl-30-[(1S)-1-methylpropyl]-3,6,9,15,18,21,25,28,31,34,42-undecaoxo-27-(propoxymethyl)-2-[[4-(trifluoromethyl)phenyl]methyl]spiro[1,4,7,10,16,19,22,26,29,32,35-undecazatricyclo[34.5.1.0^10,14]dotetracont-38-ene-17,1′-cyclobutane]-23-carboxamide] | A (a compound having 10 or more and less than 20 is denoted as A) | 0.032 | 2.3 | A (a compound having 10 or more and less than 20 is denoted as A) | – | – | – | – | – | –
CCO[C@@H]1C[C@H]2C(=O)NC3(CCC3)C(=O)N(C)[C@@H](C3CCCC3)C(=O)N(C)[C@H](C(=O)N3CCOCC3)CC(=O)N(C)[C@@H](CC)C(=O)N[C@@H]([C@@H](C)CC)C(=O)N3CC[C@H]3C(=O)N(C)[C@H]3CC[C@@H](C)CN(C3=O)[C@@H](Cc3ccc(C(F)(F)F)cc3)C(=O)N(C)CC(=O)N[C@@H](CCc3cc(F)c(C(F)(F)F)c(F)c3)C(=O)N2C1 [PP1369] | B (a compound having 3 or more and less than 10 is denoted as B) | 0.26 | 13.4 | B (a compound having 3 or more and less than 10 is denoted as B) | – | – | – | – | – | –
CCO[C@@H]1C[C@H]2C(=O)NC3(CC(C)(C)C3)C(=O)N(C)[C@@H](C3CCCC3)C(=O)N(C)[C@H](C(C)C)CC(=O)N(C)[C@@H](CC)C(=O)N[C@@H]([C@@H](C)CC)C(=O)N(C)CC(=O)N(C)[C@H]3C/C=C\CCN(C3=O)[C@@H](Cc3ccc(C(F)(F)F)cc3)C(=O)N(C)CC(=O)N[C@@H](CCc3cc(F)c(C(F)(F)F)c(F)c3)C(=O)N2C1 [PP1588] | B (a compound having 3 or more and less than 10 is denoted as B) | 0.6 | 24.2 | B (a compound having 3 or more and less than 10 is denoted as B) | – | – | – | – | – | –
CCO[C@@H]1C[C@H]2C(=O)NC3(CCC3)C(=O)N(C)[C@@H](C3CCCC3)C(=O)N(C)[C@H](C(=O)N3CCOCC3)CC(=O)N(C)[C@@H](CC)C(=O)N[C@@H]([C@@H](C)CC)C(=O)N3CC[C@H]3C(=O)N(C)[C@H]3C[C@@H](C)[C@@H](C)CN(C3=O)[C@@H](Cc3ccc(C(F)(F)F)cc3)C(=O)N(C)CC(=O)N[C@@H](CCc3cc(F)c(C(F)(F)F)c(F)c3)C(=O)N2C1 [PP1351] | B (a compound having 3 or more and less than 10 is denoted as B) | 0.13 | 12.8 | A (a compound having 10 or more and less than 20 is denoted as A) | – | – | – | – | – | –
CCO[C@@H]1C[C@H]2C(=O)NC3(CCCC3)C(=O)N(C)[C@@H](C3CCCC3)C(=O)N(C)[C@H](C(=O)N(C)C)CC(=O)N(C)[C@@H](CC)C(=O)N[C@@H]([C@@H](C)CC)C(=O)N(C)CC(=O)N(C)[C@H]3C[C@@H](C)[C@@H](C)CN(C3=O)[C@@H](Cc3ccc(C(F)(F)F)cc3)C(=O)N(C)CC(=O)N[C@@H](CCc3cc(F)c(C(F)(F)F)c(F)c3)C(=O)N2C1 [PP1352] | B (a compound having 3 or more and less than 10 is denoted as B) | 0.024 | 4.6 | A (a compound having 10 or more and less than 20 is denoted as A) | – | – | – | – | – | –
CCCOC[C@H]1C(=O)N[C@@H]([C@@H](C)CC)C(=O)N2CCC[C@H]2C(=O)N(C)[C@H]2C/C=C\CCN(C2=O)[C@@H](CC2CCC(F)(F)CC2)C(=O)N(C)CC(=O)N[C@@H](CCc2ccc(C(F)(F)F)c(OC)c2)C(=O)N2C[C@@H](C)C[C@H]2C(=O)N(C)C2(CCC2)C(=O)N(C)[C@@H](C2CCCC2)C(=O)N(C)[C@H](C(=O)N(C)C)CC(=O)N1C [PP2381] | – | – | 3.2 | – | – | – | – | A (a compound having 10 or more and less than 20 is denoted as A) | 0.93 | A (a compound having 10 or more and less than 20 is denoted as A)
